The results in this text go back to US8557763B2, “Synthetic peptides that enhance tight junction permeability” (Alba Therapeutics Corporation, priority 2007, dated 2013).

Where no end group is shown, it is not given here. [ ]: non-standard residue; d: D form. AllylGly = C=CC[C@H](N)C(=O)O

Test [1] relates to CaCo2 monolayers. In words: Trans Epithelial Electric Resistance (TEER) across CaCo2 monolayers. Also on record: key to Reduced TEER: + indicates an enhancement of the permeability of the tight junctions were observed; − indicates no enhancement of permeability was observed. It is filed as cell-based. Conditions: CaCo2 monolayers. The source says:
(§1) Agonists of tight junctions can be identified by their ability to enhance the flux of compounds (e.g. ions, Lucifer Yellow) through a cell monolayer that comprises tight junctions; or by their ability to reduce TEER across a cell monolayer that comprises tight junctions. Treatment of CaCo2 monolayers with peptide FCIGRL (SEQ ID NO: 1) led to a 51-fold enhancement of Lucifer Yellow permeability through CaCo2 monolayers compared to vehicle alone.
Treatment of CaCo2 monolayers with peptide FCIGRL led to a 16-fold decrease in TEER across CaCo2 monolayers compared to vehicle alone.
(§2) Tight junction agonists can be identified and tested using the following method:
(§3) Determination of TEER and Lucifer Yellow Flux
(§4) Prepare Modified Hank's Balanced Salt Solution (MHBSS) by obtaining 1 L bottle of HBSS removing 10 ml of HBSS and replacing it with 10 ml HEPES buffer pH 7.0. Adjust pH to 7.4±0.1 using concentrated NaOH (10N).
(§5) Remove CaCo-2 cells from incubator, grown on 12-well, 3.0 μM, polycarbonate Transwell® filters (Corning) and record passage#, date cells seeded and age in days.
(§6) Aspirate cell culture medium from both the apical (AP) and basolateral (BL) compartments, replacing with 0.5 ml and 1.5 ml of MHBSS, respectively. Incubate cells at 37° C. for 30 minutes.
Using the MilliCell®-ERS instrument (Millipore), measure and record the transepithelial electrical resistance (TEER) across each filter and record.
(§7) Aspirate solution from the apical compartment of each filter (n=3 per condition) and replace with 0.5 ml of control and test solutions containing Lucifer Yellow and test compound if appropriate.
(§8) Place all plates into incubator set at 37° C. (±0.2), 50 RPM (±5) for a total of 180 minutes.
At t=30, 60, 120 and 180 minutes, measure and record the transepithelial electrical resistance (TEER) across each filter using the MilliCell-ERS instrument.
(§9) Cells: CaCo-2 cells passage 40-60 grown on Transwell® plates for 21-28 days
(§10) Culture Medium: DMEM supplemented with 10% fetal bovine serum, 1% NEAA, 1% Penn/Strep
(§11) Buffers: Hank's Balanced Salt Solution (HBSS) without calcium and magnesium
(§12) Flasks: 100×20 mm Tissue culture dish Falcon.
(§13) Plates: 12 well polycarbonate Transwell® filters; 0.3 uM pore size

In test [2] the test system is CaCo2 monolayers. The test is described as follows: Lucifer Yellow (LY) permeability assay through CaCo2 monolayers. The test is classed as cell-based. Also on record: key to Enhanced LY permeability: + indicates an enhancement of the permeability of the tight junctions were observed; − indicates no enhancement of permeability was observed. Conditions: CaCo2 monolayers, Lucifer Yellow flux.
From the text: as §1, §2, §3, §4, §5, §6, §7, §8
At t=60, 120 and 180 minutes remove […] from each basolateral compartment and place it in a 96-well plate for Lucifer Yellow analysis, replace with 100 μl of MHBSS.
Make a Lucifer Yellow standard curve with the following dilutions (7500 μM, 3750 μM, 750 μM, 375 μM, 37.5 μM, 7.5 μM, 3.75 μM, 0.75 μM) and pipette 100 μL of each into a 96-well plate except for the first three standards mentioned above which require a 1:10 dilutions prior to transferring to the 96-well plate.
Harvest the remaining start solutions and what is left in each apical compartment into 1.5 ml vials. Freeze at −20° C. for future analysis.
Analyze each 96-well plate in a Tecan Spectra Fluor Plus using Magellan at 485 and 535 nm.
as §9, §10, §11, §12, §13

For the substance “34 (F[AllylGly]QGRL-NH2; N-terminus assumed; SMILES C=CC[C@H](NC(=O)[C@@H](N)Cc1ccccc1)C(=O)N[C@@H](CCC(N)=O)C(=O)NCC(=O)N[C@@H](CCCNC(=N)N)C(=O)N[C@@H](CC(C)C)C(N)=O) [compound 34]”, in the test with CaCo2 monolayers [1], the “Reduced TEER” value was “+”. The “Enhanced LY permeability” value in the test with CaCo2 monolayers [2] was “+”.

Turning to “39 (F[AllylGly]ITRL-NH2; N-terminus assumed; SMILES C=CC[C@H](NC(=O)[C@@H](N)Cc1ccccc1)C(=O)N[C@H](C(=O)N[C@H](C(=O)N[C@@H](CCCNC(=N)N)C(=O)N[C@@H](CC(C)C)C(N)=O)[C@@H](C)O)[C@@H](C)CC) [compound 39]”, the “Reduced TEER” value in the test on CaCo2 monolayers [1] is reported as “+”. Also, the “Enhanced LY permeability” value in the test with CaCo2 monolayers [2] was “+”.

On to “51 (F[AllylGly]IKRL-NH2; N-terminus assumed; SMILES C=CC[C@H](NC(=O)[C@@H](N)Cc1ccccc1)C(=O)N[C@H](C(=O)N[C@@H](CCCCN)C(=O)N[C@@H](CCCNC(=N)N)C(=O)N[C@@H](CC(C)C)C(N)=O)[C@@H](C)CC) [compound 51]”, for which the “Reduced TEER” value with CaCo2 monolayers [1] is “−”. In addition, the “Enhanced LY permeability” value with CaCo2 monolayers [2] was “−”.

Regarding “83 (F[AllylGly]IGRS-NH2; N-terminus assumed; SMILES C=CC[C@H](NC(=O)[C@@H](N)Cc1ccccc1)C(=O)N[C@H](C(=O)NCC(=O)N[C@@H](CCCNC(=N)N)C(=O)N[C@@H](CO)C(N)=O)[C@@H](C)CC) [compound 83]”, the “Reduced TEER” value with CaCo2 monolayers [1] was “−”. Moreover, the “Enhanced LY permeability” value with CaCo2 monolayers [2] is on record as “−”.

As for “22 (F[AllylGly]PGRL-NH2; N-terminus assumed; SMILES C=CC[C@H](NC(=O)[C@@H](N)Cc1ccccc1)C(=O)N1CCC[C@H]1C(=O)NCC(=O)N[C@@H](CCCNC(=N)N)C(=O)N[C@@H](CC(C)C)C(N)=O) [compound 22]”, the “Reduced TEER” value in the test with CaCo2 monolayers [1] is reported as “−”. Moreover, the “Enhanced LY permeability” value in the test with CaCo2 monolayers [2] was “−”.

Regarding “38 (F[AllylGly]YGRL-NH2; N-terminus assumed; SMILES C=CC[C@H](NC(=O)[C@@H](N)Cc1ccccc1)C(=O)N[C@@H](Cc1ccc(O)cc1)C(=O)NCC(=O)N[C@@H](CCCNC(=N)N)C(=O)N[C@@H](CC(C)C)C(N)=O) [compound 38]”, the “Reduced TEER” value in the test with CaCo2 monolayers [1] was “+”. Further, in the test on CaCo2 monolayers [2], the “Enhanced LY permeability” value is given as “+”.

“32 (F[AllylGly]DGRL-NH2; N-terminus assumed; SMILES C=CC[C@H](NC(=O)[C@@H](N)Cc1ccccc1)C(=O)N[C@@H](CC(=O)O)C(=O)NCC(=O)N[C@@H](CCCNC(=N)N)C(=O)N[C@@H](CC(C)C)C(N)=O) [compound 32]”: the “Reduced TEER” value in the test on CaCo2 monolayers [1] is “+”. In addition, in the test with CaCo2 monolayers [2], the “Enhanced LY permeability” value was “+”.

Regarding “21 (I[AllylGly]IGRL-NH2; N-terminus assumed; SMILES C=CC[C@H](NC(=O)[C@@H](N)[C@@H](C)CC)C(=O)N[C@H](C(=O)NCC(=O)N[C@@H](CCCNC(=N)N)C(=O)N[C@@H](CC(C)C)C(N)=O)[C@@H](C)CC) [compound 21]”, the “Reduced TEER” value in the test on CaCo2 monolayers [1] is “−”. The “Enhanced LY permeability” value in the test with CaCo2 monolayers [2] is recorded as “−”.

With “46 (F[AllylGly]IDRL-NH2; N-terminus assumed; SMILES C=CC[C@H](NC(=O)[C@@H](N)Cc1ccccc1)C(=O)N[C@H](C(=O)N[C@@H](CC(=O)O)C(=O)N[C@@H](CCCNC(=N)N)C(=O)N[C@@H](CC(C)C)C(N)=O)[C@@H](C)CC) [compound 46]”, the “Reduced TEER” value in the test on CaCo2 monolayers [1] is listed as “+”. Further, in the test with CaCo2 monolayers [2], the “Enhanced LY permeability” value is given as “+”.

With “33 (F[AllylGly]EGRL-NH2; N-terminus assumed; SMILES C=CC[C@H](NC(=O)[C@@H](N)Cc1ccccc1)C(=O)N[C@@H](CCC(=O)O)C(=O)NCC(=O)N[C@@H](CCCNC(=N)N)C(=O)N[C@@H](CC(C)C)C(N)=O) [compound 33]”, the “Reduced TEER” value with CaCo2 monolayers [1] was “+”. In addition, the “Enhanced LY permeability” value with CaCo2 monolayers [2] is given as “+”.

On to “89 (FXIGRP-NH2; not fully specified (residue 2); printed as Phe−Allylaly−Ile−Gly−Arg−Pro−NH2) [compound 89]”, for which the “Reduced TEER” value in the test with CaCo2 monolayers [1] was “−”. Moreover, the “Enhanced LY permeability” value with CaCo2 monolayers [2] is given as “−”.

As for “20 (R[AllylGly]IGRL-NH2; N-terminus assumed; SMILES C=CC[C@H](NC(=O)[C@@H](N)CCCNC(=N)N)C(=O)N[C@H](C(=O)NCC(=O)N[C@@H](CCCNC(=N)N)C(=O)N[C@@H](CC(C)C)C(N)=O)[C@@H](C)CC) [compound 20]”, the “Reduced TEER” value in the test with CaCo2 monolayers [1] is listed as “−”. In the test on CaCo2 monolayers [2], the “Enhanced LY permeability” value was “+”.

For the substance “79 (F[AllylGly]IGRQ-NH2; N-terminus assumed; SMILES C=CC[C@H](NC(=O)[C@@H](N)Cc1ccccc1)C(=O)N[C@H](C(=O)NCC(=O)N[C@@H](CCCNC(=N)N)C(=O)N[C@@H](CCC(N)=O)C(N)=O)[C@@H](C)CC) [compound 79]”, the “Reduced TEER” value in the test with CaCo2 monolayers [1] is “−”. Further, the “Enhanced LY permeability” value in the test on CaCo2 monolayers [2] is “−”.

On to “16 (K[AllylGly]IGRL-NH2; N-terminus assumed; SMILES C=CC[C@H](NC(=O)[C@@H](N)CCCCN)C(=O)N[C@H](C(=O)NCC(=O)N[C@@H](CCCNC(=N)N)C(=O)N[C@@H](CC(C)C)C(N)=O)[C@@H](C)CC) [compound 16]”, for which the “Reduced TEER” value with CaCo2 monolayers [1] was “−”. Also, in the test with CaCo2 monolayers [2], the “Enhanced LY permeability” value was “−”.

“74 (F[AllylGly]IGRD-NH2; N-terminus assumed; SMILES C=CC[C@H](NC(=O)[C@@H](N)Cc1ccccc1)C(=O)N[C@H](C(=O)NCC(=O)N[C@@H](CCCNC(=N)N)C(=O)N[C@@H](CC(=O)O)C(N)=O)[C@@H](C)CC) [compound 74]”: the “Reduced TEER” value with CaCo2 monolayers [1] is “+”. Also, the “Enhanced LY permeability” value with CaCo2 monolayers [2] is reported as “+”.

In the case of “72 (F[AllylGly]IGVL-NH2; N-terminus assumed; SMILES C=CC[C@H](NC(=O)[C@@H](N)Cc1ccccc1)C(=O)N[C@H](C(=O)NCC(=O)N[C@H](C(=O)N[C@@H](CC(C)C)C(N)=O)C(C)C)[C@@H](C)CC) [compound 72]”, the “Reduced TEER” value in the test on CaCo2 monolayers [1] is on record as “+”. For the same substance, the “Enhanced LY permeability” value in the test on CaCo2 monolayers [2] is reported as “−”.

In the case of “27 (F[AllylGly]FGRL-NH2; N-terminus assumed; SMILES C=CC[C@H](NC(=O)[C@@H](N)Cc1ccccc1)C(=O)N[C@@H](Cc1ccccc1)C(=O)NCC(=O)N[C@@H](CCCNC(=N)N)C(=O)N[C@@H](CC(C)C)C(N)=O) [compound 27]”, the “Reduced TEER” value in the test on CaCo2 monolayers [1] is given as “+”. Also, the “Enhanced LY permeability” value in the test on CaCo2 monolayers [2] was “+”.

For “36 (F[AllylGly]KGRL-NH2; N-terminus assumed; SMILES C=CC[C@H](NC(=O)[C@@H](N)Cc1ccccc1)C(=O)N[C@@H](CCCCN)C(=O)NCC(=O)N[C@@H](CCCNC(=N)N)C(=O)N[C@@H](CC(C)C)C(N)=O) [compound 36]”, in the test on CaCo2 monolayers [1], the “Reduced TEER” value is listed as “+”. Moreover, in the test on CaCo2 monolayers [2], the “Enhanced LY permeability” value is recorded as “+”.

“23 (F[AllylGly]FGRL-NH2; N-terminus assumed; SMILES C=CC[C@H](NC(=O)[C@@H](N)Cc1ccccc1)C(=O)N[C@@H](Cc1ccccc1)C(=O)NCC(=O)N[C@@H](CCCNC(=N)N)C(=O)N[C@@H](CC(C)C)C(N)=O) [compound 23]”: the “Reduced TEER” value in the test on CaCo2 monolayers [1] is “+”. Moreover, in the test with CaCo2 monolayers [2], the “Enhanced LY permeability” value was “+”.

On to “5 (M[AllylGly]IGRL-NH2; N-terminus assumed; SMILES C=CC[C@H](NC(=O)[C@@H](N)CCSC)C(=O)N[C@H](C(=O)NCC(=O)N[C@@H](CCCNC(=N)N)C(=O)N[C@@H](CC(C)C)C(N)=O)[C@@H](C)CC) [compound 5]”, for which, in the test on CaCo2 monolayers [1], the “Reduced TEER” value is “−”. For the same substance, the “Enhanced LY permeability” value with CaCo2 monolayers [2] is “+”.
